Data taken from patent publication US20220016102A1, “ER PROTEIN REGULATORS AND USE THEREOF” (ShanghaiTech University, priority 2018, published 2022).

Key:
Assay type in all cases: cell-based
[1] = molecular target: T1, ER protein (Homo sapiens, UniProt P03372); assay: Western blotting analysis of ER protein degradation in T47D cell line; set-up: western blotting detection of the level of intracellular ER protein; endogenous in cells; host or cells: T47D; settings: degradation of ER protein, T47D cells, drug treatment for 16 hours, Western blot gray values vs DMSO control; read-out: DC50 (nM)/T47Dcell line
T1 sequence (P03372 1-595): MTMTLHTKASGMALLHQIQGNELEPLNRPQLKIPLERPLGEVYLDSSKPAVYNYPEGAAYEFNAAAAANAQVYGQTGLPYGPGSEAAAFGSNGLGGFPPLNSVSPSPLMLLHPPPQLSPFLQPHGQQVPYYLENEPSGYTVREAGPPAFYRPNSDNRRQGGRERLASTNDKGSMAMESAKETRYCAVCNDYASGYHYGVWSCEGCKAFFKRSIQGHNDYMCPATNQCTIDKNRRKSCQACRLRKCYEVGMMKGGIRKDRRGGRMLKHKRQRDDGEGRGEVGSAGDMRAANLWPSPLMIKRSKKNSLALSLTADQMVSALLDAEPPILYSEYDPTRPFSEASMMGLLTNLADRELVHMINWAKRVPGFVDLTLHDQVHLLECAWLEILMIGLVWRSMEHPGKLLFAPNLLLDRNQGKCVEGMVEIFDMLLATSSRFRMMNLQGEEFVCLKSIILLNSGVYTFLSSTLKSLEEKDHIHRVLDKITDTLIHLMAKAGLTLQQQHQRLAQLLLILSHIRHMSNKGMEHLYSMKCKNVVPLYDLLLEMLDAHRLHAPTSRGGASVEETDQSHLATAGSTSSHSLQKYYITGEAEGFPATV
Outline: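 T47D cells seeded at 1.5×10^5 cells/mL, adhered 24 h, then treated with compound; ER protein level read by Western blot band gray value versus DMSO control. DC50 taken as concentration giving half the control gray value, read from bands or from a fitted concentration–gray value curve.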

[2] = tested on: MCF-7 cell line; assay: Assay for determination of inhibition of MCF-7 cell proliferation (CCK-8); settings: Homo sapiens, MCF7, 96 h; MCF-7 cells, 4 days, CCK-8, FIG. 3
Procedure: MCF-7 were cultured in ncubator with 5% CO2 at 37° C. Complete medium was EMEM supplemented with 10% FBS, 100 U/mL Penicillin and Streptomycin, and 0.77 μg/mL recombinant human insulin.
10 μL CCK-8 reagent was added to the test well without adding the drugs, and after 4 h the O.D.value of the test well was recorded as the initial cell level. • After 4 days, 10 μL CCK-8 reagent was added, and the O.D.values was measured, and inhibition level was calculated.

[3] = molecular target: T1, ER protein; assay: Western blotting analysis of ER protein degradation in MCF-7 cell line; set-up: western blotting detection of the level of intracellular ER protein; endogenous in cells; settings: MCF-7 cells, Western blot gray values vs DMSO control
Procedure: MCF-7 were cultured in ncubator with 5% CO2 at 37° C. Complete medium was EMEM supplemented with 10% FBS, 100 U/mL Penicillin and Streptomycin, and 0.77 μg/mL recombinant human insulin. […]
DC50 value (the drug concentration required for degrading proteins by 50%, abbreviated as DC50) reads method: comparing the gray values of the Western blotting bands for the drug treatment with the gray values of the Western blotting band for the DMSO control, and reading the drug concentration range corresponding to the gray value of the Western blotting bands for the drug treatment which is equal to half of the gray value of the Western blotting band for the DMSO control.
DC50 value could also be calculated as follows: using software ImageJ to quantify the gray values of the Western blotting bands for the drug treatment, fitting the relationship curve between drug concentrations and gray values, and from the fitted curve, calculating the drug concentration corresponding to half of the gray value of the Western blotting band for the DMSO control.

Structure (SMILES) | DC50 [1] [nM] | IC50 [2] [nM] | DC50 [3] [nM]
Cc1ncsc1-c1ccc(CNC(=O)[C@@H]2C[C@@H](O)CN2C(=O)[C@@H](NC(=O)CCCCCCC(=O)N2CCN(CCOc3ccc(C(=C(CCCl)c4ccccc4)c4ccc(O)cc4)cc3)CC2)C(C)(C)C)cc1 [SIAIS251045, (2S,4R)-1-((S)-2-(8-(4-(2-(4-(4-chloro-1-(4-hydroxyphenyl)-2-phenylbut-1-en-1-yl)phenoxy)ethyl)piperazin-1-yl)-8-oxooctanamido)-3,3-dimethylbutanoyl)-4-hydroxy-N-(4-(4-methylthiazol-5-yl)benzyl)pyrrolidine-2-carboxamide] | < 10 | 4.2 | –
CN(C)CCOc1ccc(/C(=C(/CCCl)c2ccccc2)c2ccccc2)cc1 [Toremifene, reference compound] | – | 869 | –
CCC(=C(c1ccc(O)cc1)c1ccc(OCCNC(=O)CCCCCCCCC(=O)N[C@H](C(=O)N2C[C@H](O)C[C@H]2C(=O)NCc2ccc(-c3scnc3C)cc2)C(C)(C)C)cc1)c1ccc(O)cc1 [SIAIS208168, N1-(2-(4-(1,2-bis(4-hydroxyphenyl)but-1-en-1-yl)phenoxy)ethyl)-N10-((S)-1-((2S,4R)-4-hydroxy-2-((4-(4-methylthiazol-5-yl)benzyl)carbamoyl)pyrrolidin-1-yl)-3,3-dimethyl-1-oxobutan-2-yl)decanediamide] | < 1 | 0.75 | –
CCC(=C(c1ccc(O)cc1)c1ccc(OCCNC(=O)CCOCCOCCC(=O)N[C@H](C(=O)N2C[C@H](O)C[C@H]2C(=O)NCc2ccc(-c3scnc3C)cc2)C(C)(C)C)cc1)c1ccc(O)cc1 [SIAIS208173, (2S,4R)-1-((S)-16-(4-(1,2-bis(4-hydroxyphenyl)but-1-en-1-yl)phenoxy)-2-(tert-butyl)-4,13-dioxo-7,10-dioxa-3,14-diazahexadecanoyl)-4-hydroxy-N-(4-(4-methylthiazol-5-yl)benzyl)pyrrolidine-2-carboxamide] | < 10 | 3.6 | –
Cc1ncsc1-c1ccc(CNC(=O)[C@@H]2C[C@@H](O)CN2C(=O)[C@@H](NC(=O)CCCCCCCC(=O)NCCOc2ccc(C(=C(CCCl)c3ccccc3)c3ccc(O)cc3)cc2)C(C)(C)C)cc1 [SIAIS208035, N1-(2-(4-(4-chloro-1-(4-hydroxyphenyl)-2-phenylbut-1-en-1-yl)phenoxy)ethyl)-N9-((S)-1-((2S,4R)-4-hydroxy-2-((4-(4-methylthiazol-5-yl)benzyl)carbamoyl)pyrrolidin-1-yl)-3,3-dimethyl-1-oxobutan-2-yl)nonanediamide] | < 10 | 0.75 | < 10
Cc1ncsc1-c1ccc(CNC(=O)[C@@H]2C[C@@H](O)CN2C(=O)[C@@H](NC(=O)CCOCCOCCC(=O)NCCOc2ccc(C(=C(CCCl)c3ccccc3)c3ccc(O)cc3)cc2)C(C)(C)C)cc1 [SIAIS208017, (2S,4R)-1-((S)-2-(tert-butyl)-16-(4-(4-chloro-1-(4-hydroxyphenyl)-2-phenylbut-1-en-1-yl)phenoxy)-4,13-dioxo-7,10-dioxa-3,14-diazahexadecanoyl)-4-hydroxy-N-(4-(4-methylthiazol-5-yl)benzyl)pyrrolidine-2-carboxamide] | < 50 | – | < 100
